Positions count from the first letter of the chain named. Read-outs that look alike come from different tables or passages of the source.
What was measured:
CYP2A7-WT [1] = molecular target: T1, CYP2A7-WT (Homo sapiens, UniProt P20853, D169E/H274R/R311C/V479G); test: in vitro
T1 sequence (P20853 1-494 D169E/H274R/R311C/V479G): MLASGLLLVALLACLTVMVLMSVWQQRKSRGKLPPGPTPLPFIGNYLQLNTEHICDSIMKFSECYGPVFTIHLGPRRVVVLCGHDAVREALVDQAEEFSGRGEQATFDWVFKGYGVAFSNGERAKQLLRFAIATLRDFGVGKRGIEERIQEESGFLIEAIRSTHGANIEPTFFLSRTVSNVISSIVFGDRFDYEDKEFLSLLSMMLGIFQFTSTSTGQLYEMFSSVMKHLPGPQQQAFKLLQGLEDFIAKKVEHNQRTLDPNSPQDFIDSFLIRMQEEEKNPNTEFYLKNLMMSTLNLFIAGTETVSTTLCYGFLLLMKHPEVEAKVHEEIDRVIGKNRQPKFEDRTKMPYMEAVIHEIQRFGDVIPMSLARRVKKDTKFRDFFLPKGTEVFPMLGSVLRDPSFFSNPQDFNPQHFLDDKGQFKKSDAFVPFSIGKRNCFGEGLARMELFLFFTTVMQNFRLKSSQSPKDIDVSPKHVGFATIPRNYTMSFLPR

CYP2A6*1 [2] = molecular target: T2, CYP2A6*1 (Homo sapiens, UniProt P11509); test: in vitro
T2 sequence (P11509 1-494): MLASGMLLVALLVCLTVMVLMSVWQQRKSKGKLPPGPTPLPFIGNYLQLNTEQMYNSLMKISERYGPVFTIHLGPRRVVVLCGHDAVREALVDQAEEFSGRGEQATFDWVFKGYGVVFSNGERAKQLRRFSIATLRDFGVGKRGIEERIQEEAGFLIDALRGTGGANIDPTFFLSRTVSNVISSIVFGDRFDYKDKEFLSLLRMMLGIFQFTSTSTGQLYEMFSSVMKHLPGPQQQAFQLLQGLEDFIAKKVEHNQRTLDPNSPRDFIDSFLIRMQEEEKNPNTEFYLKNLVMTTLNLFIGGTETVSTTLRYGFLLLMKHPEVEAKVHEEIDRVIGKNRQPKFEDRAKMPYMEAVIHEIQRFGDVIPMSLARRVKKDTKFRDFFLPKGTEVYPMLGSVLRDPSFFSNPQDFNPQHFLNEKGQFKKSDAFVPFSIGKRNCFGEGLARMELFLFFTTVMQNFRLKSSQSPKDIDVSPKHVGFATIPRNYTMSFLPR

CYP2A7*1 [3] = molecular target: T3, CYP2A7*1 (Homo sapiens, UniProt P20853); test: in vitro
T3 sequence (P20853 1-494): T1 sequence (P20853 1-494 D169E/H274R/R311C/V479G) with E169D, R274H, C311R, G479V

CYP2A6*1 [4] = molecular target: T2, CYP2A6*1; test: Fluorescence detection of coumarin 7-hydroxylation and deethylation of 7-ethoxycoumarin; type: biochemical; design: expressed in transfected cells; host or cells: Schizosaccharomyces pombe strain RAJ122 (pREP1-CYP2A6*1 in CAD62), permeabilized cells (enzyme bags); settings: by CYP2A6*1; fluorometric
Method: (§1) The fluorescence activity of CYP enzymes was measured as described with slight modifications. The solution was shaken at 37 °C for 3 h in the dark at a 50 µL final reaction volume. Afterwards, reactions were stopped by adding 350 µL ethyl acetate. The reaction tubes were vortexed for 5 min before centrifugation at 16,000× g for 8 min. Finally, 200 µL of the upper phase was extracted three times with 350 µL of ethyl acetate each. In the last step, the reaction tubes were air-dried in the dark. For reconstituting the pellet we added 50 µL of methanol, which was later followed by the addition of 250 µL of 0.01 M NaOH. The amounts of de-ethylated products were quantified by using standard solutions of 7-hydroxycoumarin and 7-ethoxycoumarin. The concentrations of 7-hydroxycoumarin were determined fluorometrically with 50 µL volume using Grenier microlon flat-bottom 96-well black plates. The energies for excitation and emission were set at 368 and at 530 nm, respectively. All readings were taken in triplicate.

CYP2A7-WT [5] = molecular target: T1, CYP2A7-WT; test: as above; type: biochemical; design: expressed in transfected cells; host or cells: Schizosaccharomyces pombe strain AA01 (pREP1-CYP2A7-WT in CAD62), permeabilized cells (enzyme bags); settings: by CYP2A7-WT; fluorometric
Method: as §1

CYP2A7*1 [6] = molecular target: T3, CYP2A7*1; test: as above; type: biochemical; design: expressed in transfected cells; host or cells: Schizosaccharomyces pombe strain RAJ127 (pREP1-CYP2A7*1 in CAD62), permeabilized cells (enzyme bags); settings: by CYP2A7*1; fluorometric
Method: as §1

CYP2A7-WT [7] = molecular target: T1, CYP2A7-WT; test: Conversion of luminogenic (proluciferin) substrates by permeabilized fission yeast cells (enzyme bags); type: biochemical; design: expressed in transfected cells; host or cells: Schizosaccharomyces pombe strain AA01 (pREP1-CYP2A7-WT in CAD62), permeabilized cells (enzyme bags); settings: for Luminescence (RLU): enzyme CYP2A7-WT coexpressed with CPR, compound as substrate, 3 h, 37 °C, mean ± SD
Method: (§2) Briefly, a concentrated CYP reaction mixture (containing a fourfold concentrated substrate and potassium phosphate buffer) was added to the cell pellets after the permeabilization and washing process. For inhibition assays, the CYP reaction mixtures with the inhibitors at a final concentration of 10 µM were pre-incubated at 37 °C for 10 min. CYP reactions were commenced by adding the twofold concentrated NADPH regeneration system. Samples were incubated for 3 h at 37 °C and 1000 rpm. After centrifugation at 16,000× g for 1 min, the supernatants were transferred to the white microtiter plates and an equal amount of reconstituted luciferin detection reagent was added to each well. Plates were then incubated at room temperature for 20 min and the luminescence was recorded on a Magellan infinite 200Pro microplate reader (Tecan; Männedorf, Switzerland). For the proluciferin substrates’ screening, the specific reaction conditions and substrate concentrations were as given in the instructions of the manufacturer (Promega). […] For inhibitor assays, ketoconazole, 1-benzylimidazole, and letrozole were added to a final concentration of 10 µM. All measurements were done at least three times in triplicates.

CYP2A7*1 [8] = molecular target: T3, CYP2A7*1; test: as above; type: biochemical; design: expressed in transfected cells; host or cells: Schizosaccharomyces pombe strain RAJ127 (pREP1-CYP2A7*1 in CAD62), permeabilized cells (enzyme bags); settings: for Conversion of luminogenic substrate (in words): by CYP2A7*1, vs. negative control (CPR only); for Luminescence (RLU): enzyme CYP2A7*1 coexpressed with CPR, compound as substrate, 3 h, 37 °C, mean ± SD
Method: as §2

CYP2A6*1 [9] = molecular target: T2, CYP2A6*1; settings: by CYP2A6*1, vs. negative control (CPR only)
Method: This was performed as described previously with slight modifications. Briefly, fission yeast cells were cultured on EMM plates with 5 µM thiamine for 3 days at 30 °C. A single yeast colony was then transferred to a 10 mL liquid culture of EMM without thiamine and cultured at 30 °C and 230 rpm for 36 h. As the recombinant expression of the human enzymes is controlled by the strong endogenous nmt1 promoter, all subsequent cultures were cultured in the absence of thiamine to keep the promoter in an active state. For each activity assay, 5 × 10^7 cells (stationary growth phase) were transferred to 1.5 mL Eppendorf tubes (Axygen; Silicon Valley, USA), pelleted, and incubated in 1 mL of 0.3% Triton-X100 in Tris-KCl buffer (200 mM KCl, 100 mM Tris-HCl pH 7.8) at room temperature for 60 min at 150 rpm for permeabilization. After three washes with 1 mL NH4HCO3 buffer (50 mM, pH 7.8), cells were resuspended in phosphate buffer (pH 7.4) and then the substrate and the NADPH regeneration system were added to a total volume of 50 µL. The samples were incubated at 37 °C and 1000 rpm for 3 h. […]
This was performed as described previously with slight modifications. […] Plates were then incubated at room temperature for 20 min and the luminescence was recorded on a Magellan infinite 200Pro microplate reader (Tecan; Männedorf, Switzerland). […]

[10] = pH 7.4, probe Luciferin-H (100 µM)

## c1ccc(Cn2ccnc2)cc1 [1-Benzyl-imidazole]
CYP2A7-WT [1]; pH 7.4
  inhibition at 3 h, 10 µM: 80 ± 21%
CYP2A6*1 [2]
  inhibition at 3 h, 10 µM: 64 ± 12%
CYP2A7*1 [3]; pH 7.4
  inhibition at 3 h, 10 µM: 55 ± 11%

## CCOc1ccc2ccc(=O)oc2c1 [7-ethoxycoumarin]
CYP2A6*1 [4]
  Conversion to 7-hydroxycoumarin: confirmed the activity
CYP2A7-WT [5]
  Conversion to 7-hydroxycoumarin: no reaction was observed
CYP2A7*1 [6]
  Conversion to 7-hydroxycoumarin: no reaction was observed

## O=c1ccc2ccccc2o1 [Coumarin, coumarin]
CYP2A6*1 [4]
  Conversion to 7-hydroxycoumarin: confirmed the activity
CYP2A7-WT [5]
  Conversion to 7-hydroxycoumarin: no reaction was observed
CYP2A7*1 [6]
  Conversion to 7-hydroxycoumarin: no reaction was observed

## CC(=O)N1CCN(c2ccc(OCC3COC(Cn4ccnc4)(c4ccc(Cl)cc4Cl)O3)cc2)CC1 (centres unmarked) [Ketoconazole]
CYP2A7-WT [1]; [10]
  inhibition at 3 h, 10 µM: 58 ± 17%
CYP2A6*1 [2]; probe Luciferin-H (100 µM)
  inhibition at 3 h, 10 µM: 70 ± 11%
CYP2A7*1 [3]; [10]
  inhibition at 3 h, 10 µM: 74 ± 4%

## N#Cc1ccc(C(c2ccc(C#N)cc2)n2cncn2)cc1 [Letrozole]
CYP2A7-WT [1]; [10]
  inhibition at 3 h, 10 µM: 72 ± 13%
CYP2A6*1 [2]; probe Luciferin-H (100 µM)
  inhibition at 3 h, 10 µM: 64 ± 10%
CYP2A7*1 [3]; [10]
  inhibition at 3 h, 10 µM: 78 ± 7%

## O=C(O)[C@H]1CSC(c2nc3ccc(OCc4ccccc4)cc3s2)=N1 [Luciferin-BE]
CYP2A7-WT [7]
  Luminescence (RLU): 6312 ± 699 RLU
CYP2A7*1 [8]
  Conversion of luminogenic substrate (in words): are CYP2A7*1 substrates
  Luminescence (RLU): 16,216 ± 369 RLU

## COc1ccc2nc(C3=NC(C(=O)O)CS3)sc2c1 (centres unmarked) [Luciferin-ME]
CYP2A6*1 [9]
  Conversion of luminogenic substrate (in words): can both metabolize
CYP2A7-WT [7]; by CYP2A7-WT, vs. negative control (CPR only)
  Conversion of luminogenic substrate (in words): also acted on both substrates
CYP2A7-WT [7]
  Luminescence (RLU): 439 ± 113 RLU
CYP2A7*1 [8]
  Conversion of luminogenic substrate (in words): can both metabolize
  Luminescence (RLU): 276 ± 63 RLU

From publication PMC11123773, “Identification of New Substrates and Inhibitors of Human CYP2A7” (Molecules, 2024)
